# Assay results from patent US12679835B2, “Benzothiazinone derivative substituted with trifluoromethyl at 6-position, and preparation method therefor and use thereof” (SOOCHOW UNIVERSITY, priority 2021, dated 2026).
# Columns and labels:
# [1] = in vitro; details: human, microsomes, pH 7.4
# [2] = tested on: Mycobacterium tuberculosis (H37 Rv, standard tuberculosis strain); experiment: Anti-Mycobacterium tuberculosis activity, microwell Alamar Blue fluorometric method (MIC); format: cell-based; details: Mycobacterium tuberculosis H37Rv, 37° C., 8 days + 2 days, read-out: MIC (minimal inhibitory concentration)
# [3] = physchem; details: pH 7.4, aqueous buffer, kinetic from dmso stock
# [4] = tested on: Tuberculosis; details: background statement, existing clinical first-line drug; cited from earlier work
Structure (SMILES),half-life at 1 μM [1],MIC [2],solubility at 4 h [3],MIC [4]
CN(Cc1nnc(-c2ccccc2)o1)c1nc(=O)c2cc(S(C)(=O)=O)cc([N+](=O)[O-])c2s1 [Control 1],45.9 min,0.014 µg/mL,–,–
CN(Cc1cn(-c2ccccc2)nn1)c1nc(=O)c2cc(S(C)(=O)=O)cc([N+](=O)[O-])c2s1 [Control 2],53.7 min,0.022 µg/mL,–,–
CN(Cc1cn(-c2ccc(F)cc2)nn1)c1nc(=O)c2cc(S(C)(=O)=O)cc([N+](=O)[O-])c2s1 [Control 3],27.6 min,0.015 µg/mL,–,–
CN(Cc1nnc(-c2ccc(F)cc2)s1)c1nc(=O)c2cc(S(C)(=O)=O)cc([N+](=O)[O-])c2s1 [Control 4],13.2 min,0.024 µg/mL,–,–
CN(Cc1coc(-c2ccccc2)n1)c1nc(=O)c2cc(S(C)(=O)=O)cc([N+](=O)[O-])c2s1 [Control 5],21 min,0.015 µg/mL,–,–
"CN(Cc1nnc(-c2ccccc2)o1)c1nc(=O)c2cc(C(F)(F)F)cc([N+](=O)[O-])c2s1 [Example 1, 2-(methyl ((5-phenyl-1,3,4-oxadiazol-2-yl)methyl)amino)-8-nitro-6-(trifluoromethyl)-4H-benzo [e] [1,3] Thiazin-4-ketone]",68.2 min,0.003 µg/mL,0.15 µg/mL,–
"CN(Cc1cn(-c2ccccc2)nn1)c1nc(=O)c2cc(C(F)(F)F)cc([N+](=O)[O-])c2s1 [Example 2, 2-(1-phenyl ((1-1H-1,2,3-triazole-4-yl)methyl) (methyl)amino)-8-nitro-6-(trifluoromethyl)-4H-benzo [e] [1,3] Thiazin-4-ketone]",100 min,0.004 µg/mL,0.13 µg/mL,–
CN(Cc1cn(-c2ccc(F)cc2)nn1)c1nc(=O)c2cc(C(F)(F)F)cc([N+](=O)[O-])c2s1 [Example 3],116 min,0.004 µg/mL,0.12 µg/mL,–
CN(Cc1nnc(-c2ccc(F)cc2)s1)c1nc(=O)c2cc(C(F)(F)F)cc([N+](=O)[O-])c2s1 [Example 4],34.3 min,0.016 µg/mL,–,–
"CN(Cc1coc(-c2ccccc2)n1)c1nc(=O)c2cc(C(F)(F)F)cc([N+](=O)[O-])c2s1 [Example 5, 2-(methyl((2-phenyloxazole-4-yl)methyl)amino)-8-nitro-6-(trifluoromethyl)-4H-benzo [e] [1,3] Thiazin-4-ketone]",33.6 min,0.003 µg/mL,0.11 µg/mL,–
O=c1nc(N2CCN(CC3CCCCC3)CC2)sc2c([N+](=O)[O-])cc(C(F)(F)F)cc12 [PBTZ169],38 min,0.00183 µg/mL,< 0.01 µg/mL,–
"NNC(=O)c1ccncc1 [isoniazid INH, isoniazid]",–,0.028 µg/mL,–,0.5 µM
